Measured values as given in PubChem BioAssay (NCI).
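Cultured in 96-well plates, cells were exposed to test compound for 48 hours across five concentrations. Abbreviation: GI50, concentration required for 50% inhibition of growth. The concentration for full growth arrest is given as TGI.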

Legend:
Test in all cases: NCI tumour cell line growth inhibition, 48 h
BT-549 breast = test system: BT-549 breast
COLO 205 colon = test system: COLO 205 colon
HCT-116 colon = test system: HCT-116 colon
OVCAR-3 ovarian = test system: OVCAR-3 ovarian
OVCAR-8 ovarian = test system: OVCAR-8 ovarian
SK-MEL-2 melanoma = test system: SK-MEL-2 melanoma
SNB-19 CNS = test system: SNB-19 CNS
SW-620 colon = test system: SW-620 colon
U251 CNS = test system: U251 CNS
UACC-62 melanoma = test system: UACC-62 melanoma

SMILES	GI50 (BT-549 breast) [µM]	TGI (BT-549 breast) [µM]	GI50 (COLO 205 colon) [µM]	TGI (COLO 205 colon) [µM]	GI50 (HCT-116 colon) [µM]	TGI (HCT-116 colon) [µM]	GI50 (OVCAR-3 ovarian) [µM]	TGI (OVCAR-3 ovarian) [µM]	GI50 (OVCAR-8 ovarian) [µM]	TGI (OVCAR-8 ovarian) [µM]	GI50 (SK-MEL-2 melanoma) [µM]	TGI (SK-MEL-2 melanoma) [µM]	GI50 (SNB-19 CNS) [µM]	TGI (SNB-19 CNS) [µM]	GI50 (SW-620 colon) [µM]	TGI (SW-620 colon) [µM]	GI50 (U251 CNS) [µM]	TGI (U251 CNS) [µM]	GI50 (UACC-62 melanoma) [µM]	TGI (UACC-62 melanoma) [µM]
O=C1C[C@@H]2/C(=C(O)\C=C\c3ccccc3)C(=O)C=C[C@@H]2O1	2.84	8.45	0.992	2.62	0.382	1.6	0.497	1.82	3.06	12.3	1.77	3.56	9.03	22.6	0.485	4.94	1.56	3.41	3	12.2
C#CCOc1cccc(Nc2ncnc3cc(NC(=O)CCl)ccc23)c1	6.08	20.3	5.04	19.8	1.96	10.2	1.84	4.35	3.32	11	12.4	27.4	4.98	18.4	1.23	3.25	2.13	4.78	4.24	16.9
COc1cc(-c2nc(SCCC(C)C)nc(Nc3ccc(S(N)(=O)=O)cc3)c2C#N)cc(OC)c1OC	2.12	6.3	2.06	5.08	2.01	4.85	2.38	6.12	4	> 100	2.47	6.16	5.38	> 100	3.08	> 100	3.17	> 100	3	22.9
CCOC(=O)c1c2c(n3ccccc13)C(=O)c1ncccc1C2=O	0.0637	41	1.65	4.93	0.0424	2.33	0.03	0.945	0.0581	6	8.23	90.3	0.0587	13.7	–	–	0.0329	1.96	0.0337	1.39
Cn1cc(-c2ccc(-c3ccc(C4=NC5(CC5)C(=O)N4C[C@@H]4CCN(C(=O)C5CC5)C4)cc3)cc2)cn1	6.09	26.1	15.6	93.5	11.7	> 100	11.5	28.1	19.4	> 100	24.8	> 100	21.8	> 100	18.2	> 100	10.5	29	10.2	34.5
O=C1C(Cl)=C(NCc2ccco2)C(=O)c2ccccc21	22	50.7	9.11	26.4	7.09	49.5	4.93	19.4	22.5	> 100	35	> 100	24.3	> 100	18.3	> 100	17	> 93.7	3.98	13.6
